Columns and labels:
LOX IMVI = assay: NCI 60 cell line panel (SRB), LOX IMVI; type: cell-based; details: Homo sapiens, Melanoma, single dose of 10 μM, read-out: Cell Growth Percent
NCI-H522 = assay: NCI 60 cell line panel (SRB), NCI-H522; type: cell-based; details: Homo sapiens; NCI-H522, Non-Small Cell Lung Cancer; single dose of 10 μM; read-out: Cell Growth Percent
NCI/ADR-RES = assay: NCI 60 cell line panel (SRB), NCI/ADR-RES; type: cell-based; details: Homo sapiens, Ovarian Cancer, single dose of 10 μM, read-out: Cell Growth Percent
SW-620 = assay: NCI 60 cell line panel (SRB), SW-620; type: cell-based; details: Homo sapiens; SW-620, Colon Cancer; single dose of 10 μM; read-out: Cell Growth Percent
SK-MEL-2 = assay: NCI 60 cell line panel (SRB), SK-MEL-2; type: cell-based; details: Homo sapiens; SK-MEL-2, Melanoma; single dose of 10 μM; read-out: Cell Growth Percent
MCF7 = assay: NCI 60 cell line panel (SRB), MCF7; type: cell-based; details: Homo sapiens; MCF7, Breast Cancer; single dose of 10 μM; read-out: Cell Growth Percent
OVCAR-4 = assay: NCI 60 cell line panel (SRB), OVCAR-4; type: cell-based; details: Homo sapiens; OVCAR-4, Ovarian Cancer; single dose of 10 μM; read-out: Cell Growth Percent
CCRF-CEM = assay: NCI 60 cell line panel (SRB), CCRF-CEM; type: cell-based; details: Homo sapiens, Leukemia, single dose of 10 μM, read-out: Cell Growth Percent
HOP-92 = assay: NCI 60 cell line panel (SRB), HOP-92; type: cell-based; details: Homo sapiens; HOP-92, Non-Small Cell Lung Cancer; single dose of 10 μM; read-out: Cell Growth Percent
DU-145 = assay: NCI 60 cell line panel (SRB), DU-145; type: cell-based; details: Homo sapiens; DU-145, Prostate Cancer; single dose of 10 μM; read-out: Cell Growth Percent
SF-295 = assay: NCI 60 cell line panel (SRB), SF-295; type: cell-based; details: Homo sapiens; SF-295, CNS Cancer; single dose of 10 μM; read-out: Cell Growth Percent
UO-31 = assay: NCI 60 cell line panel (SRB), UO-31; type: cell-based; details: Homo sapiens; UO-31, Renal Cancer; single dose of 10 μM; read-out: Cell Growth Percent
NCI-H23 = assay: NCI 60 cell line panel (SRB), NCI-H23; type: cell-based; details: Homo sapiens; NCI-H23, Non-Small Cell Lung Cancer; single dose of 10 μM; read-out: Cell Growth Percent
UACC-257 = assay: NCI 60 cell line panel (SRB), UACC-257; type: cell-based; details: Homo sapiens; UACC-257, Melanoma; single dose of 10 μM; read-out: Cell Growth Percent
MDA-MB-231/ATCC = assay: NCI 60 cell line panel (SRB), MDA-MB-231/ATCC; type: cell-based; details: Homo sapiens, Breast Cancer, single dose of 10 μM, read-out: Cell Growth Percent
RPMI-8226 = assay: NCI 60 cell line panel (SRB), RPMI-8226; type: cell-based; details: Homo sapiens; RPMI-8226, Leukemia; single dose of 10 μM; read-out: Cell Growth Percent
NCI-H226 = assay: NCI 60 cell line panel (SRB), NCI-H226; type: cell-based; details: Homo sapiens; NCI-H226, Non-Small Cell Lung Cancer; single dose of 10 μM; read-out: Cell Growth Percent
EKVX = assay: NCI 60 cell line panel (SRB), EKVX; type: cell-based; details: Homo sapiens, Non-Small Cell Lung Cancer, single dose of 10 μM, read-out: Cell Growth Percent
OVCAR-3 = assay: NCI 60 cell line panel (SRB), OVCAR-3; type: cell-based; details: Homo sapiens; OVCAR-3, Ovarian Cancer; single dose of 10 μM; read-out: Cell Growth Percent
SK-OV-3 = assay: NCI 60 cell line panel (SRB), SK-OV-3; type: cell-based; details: Homo sapiens; SK-OV-3, Ovarian Cancer; single dose of 10 μM; read-out: Cell Growth Percent
HL-60(TB) = assay: NCI 60 cell line panel (SRB), HL-60(TB); type: cell-based; details: Homo sapiens, Leukemia, single dose of 10 μM, read-out: Cell Growth Percent
CAKI-1 = assay: NCI 60 cell line panel (SRB), CAKI-1; type: cell-based; details: Homo sapiens; CAKI-1, Renal Cancer; single dose of 10 μM; read-out: Cell Growth Percent
RXF 393 = assay: NCI 60 cell line panel (SRB), RXF 393; type: cell-based; details: Homo sapiens; RXF 393, Renal Cancer; single dose of 10 μM; read-out: Cell Growth Percent
A498 = assay: NCI 60 cell line panel (SRB), A498; type: cell-based; details: Homo sapiens; A498, Renal Cancer; single dose of 10 μM; read-out: Cell Growth Percent
PC-3 = assay: NCI 60 cell line panel (SRB), PC-3; type: cell-based; details: Homo sapiens; PC-3, Prostate Cancer; single dose of 10 μM; read-out: Cell Growth Percent
ACHN = assay: NCI 60 cell line panel (SRB), ACHN; type: cell-based; details: Homo sapiens, Renal Cancer, single dose of 10 μM, read-out: Cell Growth Percent
T-47D = assay: NCI 60 cell line panel (SRB), T-47D; type: cell-based; details: Homo sapiens, T47D, Breast Cancer, single dose of 10 μM, read-out: Cell Growth Percent
VEGFR-2 (KDR) = target: T1, VEGFR-2 (KDR) (Homo sapiens, UniProt P35968); assay: In vitro VEGFR-2 tyrosine kinase activity (Kinase-Glo Plus luminescence, BPS Bioscience); type: biochemical; details: single dose concentration of 10 μM
T1 construct: purchased BPS Bioscience 40301
T1 sequence (P35968 20-1356): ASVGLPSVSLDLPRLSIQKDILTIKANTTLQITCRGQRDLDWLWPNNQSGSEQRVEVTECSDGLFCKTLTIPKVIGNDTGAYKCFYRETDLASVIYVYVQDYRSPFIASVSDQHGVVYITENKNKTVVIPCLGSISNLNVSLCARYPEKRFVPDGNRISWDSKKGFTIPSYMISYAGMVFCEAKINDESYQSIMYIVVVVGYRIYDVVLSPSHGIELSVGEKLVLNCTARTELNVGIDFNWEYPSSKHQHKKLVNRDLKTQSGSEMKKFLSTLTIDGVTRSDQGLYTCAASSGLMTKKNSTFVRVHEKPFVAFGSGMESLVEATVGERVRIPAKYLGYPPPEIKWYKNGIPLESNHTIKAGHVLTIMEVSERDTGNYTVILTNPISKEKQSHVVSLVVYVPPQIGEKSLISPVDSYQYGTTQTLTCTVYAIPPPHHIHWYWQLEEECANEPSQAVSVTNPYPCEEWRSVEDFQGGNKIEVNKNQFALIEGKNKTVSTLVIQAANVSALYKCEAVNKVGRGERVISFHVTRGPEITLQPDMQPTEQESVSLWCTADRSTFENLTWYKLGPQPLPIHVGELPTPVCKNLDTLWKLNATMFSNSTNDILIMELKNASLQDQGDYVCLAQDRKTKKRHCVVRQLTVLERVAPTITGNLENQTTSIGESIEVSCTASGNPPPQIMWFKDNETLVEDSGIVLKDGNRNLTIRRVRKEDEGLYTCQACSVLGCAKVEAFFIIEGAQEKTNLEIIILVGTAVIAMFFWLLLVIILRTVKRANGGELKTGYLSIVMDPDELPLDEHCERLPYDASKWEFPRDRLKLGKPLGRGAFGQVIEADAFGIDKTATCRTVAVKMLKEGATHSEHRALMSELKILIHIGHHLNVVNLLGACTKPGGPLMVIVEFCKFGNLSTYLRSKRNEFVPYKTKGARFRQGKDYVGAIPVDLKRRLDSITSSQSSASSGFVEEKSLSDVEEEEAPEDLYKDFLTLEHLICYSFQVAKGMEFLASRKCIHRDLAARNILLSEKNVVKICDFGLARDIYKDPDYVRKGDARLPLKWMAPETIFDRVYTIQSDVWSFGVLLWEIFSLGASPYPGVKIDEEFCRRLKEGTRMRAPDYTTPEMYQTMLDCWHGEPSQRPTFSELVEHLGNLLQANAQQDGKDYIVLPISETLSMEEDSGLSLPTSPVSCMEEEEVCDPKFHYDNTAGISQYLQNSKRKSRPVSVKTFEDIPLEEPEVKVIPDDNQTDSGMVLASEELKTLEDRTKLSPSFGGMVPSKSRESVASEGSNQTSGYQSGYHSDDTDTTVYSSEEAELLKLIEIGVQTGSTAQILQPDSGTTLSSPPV

HT29 = assay: NCI 60 cell line panel (SRB), HT29; type: cell-based; details: Homo sapiens, HT-29; HT29, Colon Cancer; single dose of 10 μM; read-out: Cell Growth Percent
HCC-2998 = assay: NCI 60 cell line panel (SRB), HCC-2998; type: cell-based; details: Homo sapiens; HCC-2998, Colon Cancer; single dose of 10 μM; read-out: Cell Growth Percent
SF-268 = assay: NCI 60 cell line panel (SRB), SF-268; type: cell-based; details: Homo sapiens; SF-268, CNS Cancer; single dose of 10 μM; read-out: Cell Growth Percent
HCT-15 = assay: NCI 60 cell line panel (SRB), HCT-15; type: cell-based; details: Homo sapiens; HCT-15, Colon Cancer; single dose of 10 μM; read-out: Cell Growth Percent
OVCAR-8 = assay: NCI 60 cell line panel (SRB), OVCAR-8; type: cell-based; details: Homo sapiens; OVCAR-8, Ovarian Cancer; single dose of 10 μM; read-out: Cell Growth Percent

SMILES: CCOC(=O)c1c(C)oc2ncnc(Nc3ccc(C(=O)Nc4ccc(OC)cc4)cc3)c12 [Compound 14b]
- activity at 10 µM (LOX IMVI): 93.2%
- activity at 10 µM (NCI-H522): 84%
- activity at 10 µM (NCI/ADR-RES): 88.7%
- activity at 10 µM (SW-620): 112%
- activity at 10 µM (SK-MEL-2): 107%
- activity at 10 µM (MCF7): 95.6%
- activity at 10 µM (OVCAR-4): 95.6%
- activity at 10 µM (CCRF-CEM): 89.1%
- activity at 10 µM (HOP-92): 78.8%
- activity at 10 µM (DU-145): 97.1%
- activity at 10 µM (SF-295): 99.3%
- activity at 10 µM (UO-31): 94.3%
- activity at 10 µM (NCI-H23): 95.6%
- activity at 10 µM (UACC-257): 94.7%
- activity at 10 µM (MDA-MB-231/ATCC): 91%
- activity at 10 µM (RPMI-8226): 91.3%
- activity at 10 µM (NCI-H226): 94.2%
- activity at 10 µM (EKVX): 91.1%
- activity at 10 µM (OVCAR-3): 110%
- activity at 10 µM (SK-OV-3): 94.1%
- activity at 10 µM (HL-60(TB)): 88.6%
- activity at 10 µM (CAKI-1): 96.6%
- activity at 10 µM (RXF 393): 92%
- activity at 10 µM (A498): 75.3%
- activity at 10 µM (PC-3): 83.6%
- activity at 10 µM (ACHN): 95.2%
- activity at 10 µM (T-47D): 91%
- inhibition at 10 µM (VEGFR-2 (KDR)): 8%
- activity at 10 µM (HT29): 81.1%
- activity at 10 µM (HCC-2998): 114%
- activity at 10 µM (SF-268): 101%
- activity at 10 µM (HCT-15): 88.5%
- activity at 10 µM (OVCAR-8): 98.9%

SMILES: O=C(Nc1ccc(Cl)cc1)Nc1ccc(Oc2ncnc3sc4c(c23)CCCC4)cc1 [Compound 21d]
- activity at 10 µM (LOX IMVI): 84.8%
- activity at 10 µM (NCI-H522): 47.5%
- activity at 10 µM (NCI/ADR-RES): 85%
- activity at 10 µM (SW-620): 97.7%
- activity at 10 µM (SK-MEL-2): 104%
- activity at 10 µM (MCF7): 83.2%
- activity at 10 µM (OVCAR-4): 93.6%
- activity at 10 µM (CCRF-CEM): 77.9%
- activity at 10 µM (HOP-92): 102%
- activity at 10 µM (DU-145): 91.9%
- activity at 10 µM (SF-295): 101%
- activity at 10 µM (UO-31): 71.2%
- activity at 10 µM (NCI-H23): 87.4%
- activity at 10 µM (UACC-257): 91.4%
- activity at 10 µM (MDA-MB-231/ATCC): 70.1%
- activity at 10 µM (RPMI-8226): 68.8%
- activity at 10 µM (NCI-H226): 74%
- activity at 10 µM (EKVX): 82.9%
- activity at 10 µM (OVCAR-3): 85.8%
- activity at 10 µM (SK-OV-3): 90.8%
- activity at 10 µM (HL-60(TB)): 100%
- activity at 10 µM (CAKI-1): 95.4%
- activity at 10 µM (RXF 393): 87.7%
- activity at 10 µM (A498): 70.1%
- activity at 10 µM (PC-3): 57.6%
- activity at 10 µM (ACHN): 95.4%
- activity at 10 µM (T-47D): 73.3%
- inhibition at 10 µM (VEGFR-2 (KDR)): 46%
- activity at 10 µM (HT29): 86.4%
- activity at 10 µM (HCC-2998): 107%
- activity at 10 µM (SF-268): 87%
- activity at 10 µM (HCT-15): 91.6%
- activity at 10 µM (OVCAR-8): 94.7%

Reference: article PMC4832243, “Discovery of Potent VEGFR-2 Inhibitors based on Furopyrimidine and Thienopyrimidne Scaffolds as Cancer Targeting Agents” (Scientific Reports, 2016)
